The values that follow come from patent US9284307B2, “Macrocyclic serine protease inhibitors” (Idenix Pharmaceuticals LLC, priority 2009, dated 2016).

A short description of one data set: in vitro. The settings on record: human. It counts as cell-based. The method, then:
For cytotoxicity evaluation, GS4.1 cells were treated with compounds as described above and cellular viability was monitored using the Cell Titer 96 AQueous One Solution Cell Proliferation Assay (Promega). CC50 values were determined from the % cytotoxicity versus concentration data with Tecan Magellan software as described above.

The target of the next data set is T1, HCV NS3-NS4A protease 1b (Hepatitis C virus genotype 1b, UniProt Q9WMX2).
T1 construct: using 2-3 nM HCV NS3-NS4A protease, which was produced according to the method of Taremi et al; made in house
The experiment in a line: HCV protease assay (HiLyte Fluor TR/QXL 610 FRET peptide), genotype 1b. It counts as biochemical. The settings on record: 2-3 nM protease, 60 min at 30° C., read-out: IC50 Against HS3/4A 1b. The method, then:
(§1) Measurement of the inhibitory effect of compounds on HCV protease activity was performed using the HiLyte Fluor™ TR/QXL™ 610 FRET peptide from AnaSpec, Inc. (San Jose, Calif.) under conditions developed in-house using 2-3 nM HCV NS3-NS4A protease, which was produced according to the method of Taremi et al. (Protein Science, 1998, 7, 2143-2149). The compounds were tested at a variety of concentrations in assay buffer containing a final DMSO concentration of 5%. Reactions were allowed to proceed for 60 min at 30° C. and fluorescence measurements were recorded with a PerkinElmer Victor^3 V 1420 Multilabel Counter. The IC50 values were determined from the percent inhibition versus concentration data using a sigmoidal non-linear regression analysis based on four parameters with XLfit 4.1 software.

Data set [1] concerns HCV luciferase-bearing mutant replicon, NS3 D168V, in cured GS4.1 cells. As to the kind of experiment: Luciferase replicon transient transfection assay, D168V mutant replicon. The format is cell-based. The method, then:
(§2) The luciferase replicon transient transfection assay measures the ability of a test compound to inhibit the replication of a transiently-transfected HCV luciferase-bearing wild-type or mutant replicon in cured human hepatoma cells (cured GS4.1). The mutant replicons bear a specific single-site mutation in NS3 that is known to confer resistance to protease inhibitors currently in development. The inhibition of HCV replication was measured by quantification of luciferase protein expression. This assay has been validated using a panel of replicons bearing known protease inhibitor resistance mutations and their respective reference compounds. Briefly, subconfluent cured GS4.1 cells in OptiBuffer (ThermoElectron Corp.) were electroporated with 40 μg of wild-type or mutant luciferase-bearing HCV replicon RNA. The cells were then seeded in 96-well opaque white plates at 2.4×10^4 cells/well in 150 μL/well and incubated for 4 hours at 37° C./5% CO2. […] The plates were agitated on a rotating platform at room temperature for 3 minutes and read in a Victor^3V microplate reader (Perkin-Elmer) using a 700 nm cut-off filter with a 1 second read time. EC50 values were calculated from dose response curves from the resulting best-fit equations determined by Microsoft Excel and XLfit 4.1 software.
A general note: In antiviral work, replicon cells carry a viral genome segment that copies itself.

Data set [2] deals with HCV luciferase-bearing wild-type replicon in cured GS4.1 cells. As to the kind of experiment: Luciferase replicon transient transfection assay, wild-type replicon. The format is cell-based. The method, then: as §2
The test system of data set [3] is HCV Con1 subgenomic replicon in Huh-7 cells (GS4.1 cells). As to the kind of experiment: HCV replicon assay (NS4A ELISA, GS4.1 cells). The format is cell-based. To be noted: Hepatitis C virus, 72 hr. The method, then: Huh-7 cells containing HCV Con1 subgenomic replicon (GS4.1 cells) were grown in Dulbecco's Modified Eagle Medium (DMEM) supplemented with 10% fetal bovine serum (FBS), 2 mM L-glutamine, 110 mg/L sodium pyruvate, 1× non-essential amino acids, 100 U/mL penicillin-streptomycin, and 0.5 mg/mL G418 (Invitrogen). For dose-response testing, the cells were seeded in 96-well plates at 7.5×10^3 cells/well in a volume of 50 μL, and incubated at 37° C./5% CO2. Three hours after plating, 50 μL of ten 2-fold serial dilutions of compounds (highest concentration, 75 μM) were added, and cell cultures were incubated at 37° C./5% CO2 in the presence of 0.5% DMSO. Alternatively, compounds were tested at a single concentration of 15 μM. In all cases, Huh-7 cells lacking the HCV replicon served as negative control. The cells were incubated in the presence of compounds for 72 hr after which they were monitored for expression of the NS4A protein by enzyme-linked immunosorbent assay (ELISA). […] The reaction was stopped after 30 min with 2 N H2SO4, and absorbance was read at 492 nm using Sunrise Tecan spectrophotometer. EC50 values were determined from the % inhibition versus concentration data using a sigmoidal non-linear regression analysis based on four parameters with Tecan Magellan software.

The target of another data set is T2, HCV NS3-NS4A protease 1a (Hepatitis C virus genotype 1a, UniProt P27958).
T2 construct: using 2-3 nM HCV NS3-NS4A protease, which was produced according to the method of Taremi et al; made in house
The experiment in a line: HCV protease assay (HiLyte Fluor TR/QXL 610 FRET peptide), genotype 1a. To be noted: 2-3 nM protease, 60 min at 30° C., read-out: IC50 Against HS3/4A 1a. It counts as biochemical. The method, then:
as §1

A further data set has as its target T3, HCV NS3-NS4A protease 3a (Hepatitis C virus genotype 3a, UniProt Q81258).
T3 construct: using 2-3 nM HCV NS3-NS4A protease, which was produced according to the method of Taremi et al; made in house
The experiment in a line: HCV protease assay (HiLyte Fluor TR/QXL 610 FRET peptide), genotype 3a. It counts as biochemical. The settings on record: 2-3 nM protease, 60 min at 30° C., read-out: IC50 Against HS3/4A 3a. The method, then:
as §1

Data set [4] relates to HCV luciferase-bearing mutant replicon, NS3 A156S, in cured GS4.1 cells. As to the kind of experiment: Luciferase replicon transient transfection assay, A156S mutant replicon. It counts as cell-based. The method, then:
as §2

A word on the CC50: it is the concentration at which the toxic effect on the cells reaches its halfway point. A high value points to lower toxicity to the cells. Usually EC50 stands for the concentration giving half of the maximal effect. Consider `COc1ccc2c(O[C@H]3CC[C@H]4C(=O)N(C)CCCC/C=C\[C@@H]5C[C@@]5(C(=O)NS(=O)(=O)C5(C)CC5)NC(=O)[C@@H]4C3)cc(-c3nc(C(F)(F)F)cs3)nc2c1C` [Compound 51], for which the CC50 in the data set “in vitro” is 10000 to 75000 nM. Further, the IC50 on HCV NS3-NS4A protease 1b, on HCV NS3-NS4A protease 1a and at HCV NS3-NS4A protease 3a was < 1000 nM each time. Further, in data set [1] (EC50 fold change, D168V replicon), the “Fold Change, D168V replicon” value is recorded as 1000-3000. For the same compound, the concentration giving a half-maximal response (EC50) in data set [1] (Hepatitis C virus, 96 h, read-out: EC50(nm), D168V replicon) was 2000 to 2750 nM; in data set [2] (Hepatitis C virus, 96 h, read-out: EC50(nm), Wild Type replicon), 0.35 to 1.1 nM; in data set [3], < 1000 nM; in data set [4] (Hepatitis C virus, 96 h, read-out: EC50(nm), A156S replicon), 0.1 to 0.35 nM. Also, the “Fold Change, Wild Type replicon” value in data set [2] (EC50 fold change, wild-type replicon) was 1. In data set [4] (EC50 fold change, A156S replicon), the “Fold Change, A156S replicon” value lay in the range of 0.2 to 0.6.
